Test results taken from paper PMC5668625 (Biochemistry and Biophysics Reports, 2015).
pKi: −log10 of the molar value.

Biological target: human phosphoglucose isomerase (hPGI) / autocrine motility factor (Homo sapiens, UniProt P06744)
Experiment: end-point isomerization kinetics
Format: biochemical

pKi: 4.92
Structure (SMILES): O=C(O)[C@H](O)[C@@H](O)[C@H](O)[C@H](O)COP(=O)(O)O [6P-GA, 6-phosphogluconate]
